Results: patent US4698352A, “4-oxo-1,4-dihydronicotinic acid derivatives, salts thereof, and antibacterial agents containing the same” (Toyama Chemical Co., Ltd., priority 1982, dated 1987)
Values after ≈ are worked out from the molar mass of the structure shown. Where two headings read alike, the source gives them in different places.

Experiments:
Test in all cases: Antibacterial activity (MIC), agar dilution
Assay type in all cases: cell-based
[1] = test system: Aci. antitratus A-6; conditions: 20 h, Aci. antitratus A-6; 10^6 cells per ml; 37° C., 20 hours; read-out: MIC
Text: (§1) The amount of bacteria inoculated was 10^4 cells per plate (10^6 cells per ml).

[2] = test system: E. coli NIHJ JC-2; conditions: Escherichia coli, NIHJJC2, 20 h, E. coli NIHJ JC-2; 10^6 cells per ml; 37° C., 20 hours; read-out: MIC
Text: as §1

[3] = test system: E. coli TK-111; conditions: Escherichia coli, TK111, 20 h, E. coli TK-111; 10^6 cells per ml; 37° C., 20 hours; read-out: MIC
Text: as §1

[4] = test system: Ent. cloacae IID977; conditions: Enterobacter cloacae, IID977, 20 h, Ent. cloacae IID977; 10^6 cells per ml; 37° C., 20 hours; read-out: MIC
Text: as §1

[5] = test system: Kl. pneumoniae Y-41; conditions: Klebsiella pneumoniae, Y41, 10^6 cells per ml, 37° C., 20 hours, read-out: MIC
Text: as §1

[6] = test system: Kl. pneumoniae Y-50; conditions: Klebsiella pneumoniae, Y50, 20 h, 10^6 cells per ml, 37° C., read-out: MIC
Text: as §1

[7] = test system: Pro. mirabilis T-111; conditions: Proteus mirabilis, 37° C.
Text: as §1

[8] = test system: Pro. morganii T-216; conditions: Morganella morganii, 37° C.
Text: as §1

[9] = test system: Pro. vulgaris GN3027; conditions: Proteus vulgaris, GN3027, 20 h, Pro. vulgaris GN3027; 10^6 cells per ml; 37° C., 20 hours; read-out: MIC
Text: as §1

[10] = test system: Ps. aeruginosa IFO3445; conditions: Pseudomonas aeruginosa; Ps. aeruginosa IFO3445; 10^6 cells per ml; 37° C., 20 hours; read-out: MIC
Text: as §1

[11] = test system: Ps. aeruginosa S-68; conditions: Pseudomonas aeruginosa, S68; Ps. aeruginosa S-68; 10^6 cells per ml; 37° C., 20 hours; read-out: MIC
Text: as §1

[12] = test system: St. aureus FDA209P; conditions: Staphylococcus aureus, FDA209P, 20 h, St. aureus FDA209P; 10^6 cells per ml; 37° C., 20 hours; read-out: MIC
Text: as §1

[13] = test system: E. coli TK-3*; conditions: Escherichia coli, 20 h, E. coli TK-3, penicillinase-producing; 10^6 cells per ml; read-out: MIC
Text: as §1
(§2) * Penicillinase-producing bacteria

[14] = test system: Kl. pneumoniae Y-4*; conditions: Klebsiella pneumoniae, 20 h, Kl. pneumoniae Y-4, penicillinase-producing; 10^6 cells per ml; read-out: MIC
Text: as §1, §2

[15] = test system: Ps. aeruginosa GN3379*; conditions: Pseudomonas aeruginosa, 20 h; Ps. aeruginosa GN3379, penicillinase-producing; 10^6 cells per ml; read-out: MIC
Text: as §1, §2

[16] = test system: St. aureus F-137*; conditions: Staphylococcus aureus, 20 h, St. aureus F-137, penicillinase-producing; 10^6 cells per ml; read-out: MIC
Text: as §1, §2

[17] = test system: E. coli GN5482**; conditions: Escherichia coli, 20 h; E. coli GN5482, cephalospolinase-producing; 10^6 cells per ml; read-out: MIC
Text: as §1
(§3) ** Cephalospolinase-producing bacteria

[18] = test system: Pro. vulgaris GN76**; conditions: Proteus vulgaris, 20 h; Pro. vulgaris GN76, cephalospolinase-producing; 10^6 cells per ml; read-out: MIC
Text: as §1, §3

[19] = test system: Ps. aeruginosa GN918**; conditions: Pseudomonas aeruginosa, Ps. aeruginosa GN918, cephalospolinase-producing, 10^6 cells per ml
Text: as §1, §3

[20] = T111, 10^6 cells per ml, 20 hours, read-out: MIC
[21] = T216, 10^6 cells per ml, 20 hours, read-out: MIC

SMILES	MIC [1]	MIC [2]	MIC [3]	MIC [4]	MIC [5]	MIC [6]	MIC [7, 20]	MIC [8, 21]	MIC [9]	MIC [10]	MIC [11]	MIC [12]	MIC [13]	MIC [14]	MIC [15]	MIC [16]	MIC [17]	MIC [18]	MIC ([19]; 20 h, read-out: MIC)	also measured
Cn1ccc2cc(-c3cc(=O)c(C(=O)O)cn3-c3ccc(O)cc3F)ccc21	≤ 0.05 µg/mL	≤ 0.05 µg/mL	≤ 0.05 µg/mL	0.39 µg/mL (≈ 1.03 µM)	0.39 µg/mL (≈ 1.03 µM)	0.2 µg/mL (≈ 0.529 µM)	0.39 µg/mL (≈ 1.03 µM)	0.39 µg/mL (≈ 1.03 µM)	≤ 0.05 µg/mL	1.56 µg/mL (≈ 4.12 µM)	1.56 µg/mL (≈ 4.12 µM)	0.05 µg/mL (≈ 0.132 µM)	0.2 µg/mL (≈ 0.529 µM)	0.78 µg/mL (≈ 2.06 µM)	3.13 µg/mL (≈ 8.27 µM)	≤ 0.05 µg/mL	≤ 0.05 µg/mL	0.39 µg/mL (≈ 1.03 µM)	0.78 µg/mL (≈ 2.06 µM)	
CC(=O)Oc1ccc(-n2cc(C(=O)OCCN(C)C)c(=O)cc2-c2ccc3c(ccn3C)c2)c(F)c1	0.39 µg/mL (≈ 0.793 µM)	0.1 µg/mL (≈ 0.203 µM)	≤ 0.05 µg/mL	0.78 µg/mL (≈ 1.59 µM)	3.13 µg/mL (≈ 6.37 µM)	0.39 µg/mL (≈ 0.793 µM)	1.56 µg/mL (≈ 3.17 µM)		0.1 µg/mL (≈ 0.203 µM)	6.25 µg/mL (≈ 12.7 µM)	6.25 µg/mL (≈ 12.7 µM)	≤ 0.05 µg/mL	0.39 µg/mL (≈ 0.793 µM)	3.13 µg/mL (≈ 6.37 µM)	12.5 µg/mL (≈ 25.4 µM)	≤ 0.05 µg/mL	≤ 0.05 µg/mL	0.78 µg/mL (≈ 1.59 µM)	1.56 µg/mL (≈ 3.17 µM)	MIC ([8]; T216, 20 h, 10^6 cells per ml): 3.13 µg/mL (≈ 6.37 µM)
COc1ccc(-c2cc(=O)c(C(=O)O)cn2-c2ccc(O)cc2C)cc1	0.2 µg/mL (≈ 0.569 µM)	0.1 µg/mL (≈ 0.285 µM)	0.05 µg/mL (≈ 0.142 µM)	0.39 µg/mL (≈ 1.11 µM)	0.78 µg/mL (≈ 2.22 µM)	0.1 µg/mL (≈ 0.285 µM)	1.56 µg/mL (≈ 4.44 µM)	1.56 µg/mL (≈ 4.44 µM)	≤ 0.05 µg/mL	3.13 µg/mL (≈ 8.91 µM)	3.13 µg/mL (≈ 8.91 µM)	0.1 µg/mL (≈ 0.285 µM)	0.2 µg/mL (≈ 0.569 µM)	0.78 µg/mL (≈ 2.22 µM)	12.5 µg/mL (≈ 35.6 µM)	0.1 µg/mL (≈ 0.285 µM)	≤ 0.05 µg/mL	0.39 µg/mL (≈ 1.11 µM)	1.56 µg/mL (≈ 4.44 µM)	
CNc1ccc(-c2cc(=O)c(C(=O)O)cn2-c2ccc(O)cc2)cc1C	0.78 µg/mL (≈ 2.23 µM)	0.39 µg/mL (≈ 1.11 µM)	0.1 µg/mL (≈ 0.285 µM)	0.78 µg/mL (≈ 2.23 µM)	1.56 µg/mL (≈ 4.45 µM)	0.39 µg/mL (≈ 1.11 µM)	3.13 µg/mL (≈ 8.93 µM)		0.39 µg/mL (≈ 1.11 µM)	3.13 µg/mL (≈ 8.93 µM)	3.13 µg/mL (≈ 8.93 µM)	0.39 µg/mL (≈ 1.11 µM)	0.39 µg/mL (≈ 1.11 µM)	1.56 µg/mL (≈ 4.45 µM)	6.25 µg/mL (≈ 17.8 µM)	0.39 µg/mL (≈ 1.11 µM)	≤ 0.05 µg/mL	0.78 µg/mL (≈ 2.23 µM)	0.78 µg/mL (≈ 2.23 µM)	MIC ([8]; T216, 20 h, 10^6 cells per ml): 1.56 µg/mL (≈ 4.45 µM)
Cc1cc(O)ccc1-n1cc(C(=O)O)c(=O)cc1-c1ccc2c(ccn2C)c1	≤ 0.05 µg/mL	≤ 0.05 µg/mL	0.05 µg/mL (≈ 0.134 µM)	0.39 µg/mL (≈ 1.04 µM)	0.78 µg/mL (≈ 2.08 µM)	0.2 µg/mL (≈ 0.534 µM)	0.78 µg/mL (≈ 2.08 µM)	0.78 µg/mL (≈ 2.08 µM)	0.1 µg/mL (≈ 0.267 µM)	3.13 µg/mL (≈ 8.36 µM)	3.13 µg/mL (≈ 8.36 µM)	≤ 0.05 µg/mL	0.2 µg/mL (≈ 0.534 µM)	0.78 µg/mL (≈ 2.08 µM)	6.25 µg/mL (≈ 16.7 µM)	≤ 0.05 µg/mL	≤ 0.05 µg/mL	0.39 µg/mL (≈ 1.04 µM)	0.39 µg/mL (≈ 1.04 µM)	
Cn1ccc2cc(-c3cc(=O)c(C(=O)O)cn3-c3ccc(F)cc3)ccc21	0.1 µg/mL (≈ 0.276 µM)	0.39 µg/mL (≈ 1.08 µM)	0.1 µg/mL (≈ 0.276 µM)	1.56 µg/mL (≈ 4.31 µM)	3.13 µg/mL (≈ 8.64 µM)	0.78 µg/mL (≈ 2.15 µM)		1.56 µg/mL (≈ 4.31 µM)	0.2 µg/mL (≈ 0.552 µM)	12.5 µg/mL (≈ 34.5 µM)	12.5 µg/mL (≈ 34.5 µM)	0.39 µg/mL (≈ 1.08 µM)	1.56 µg/mL (≈ 4.31 µM)	3.13 µg/mL (≈ 8.64 µM)	25 µg/mL (≈ 69 µM)	0.39 µg/mL (≈ 1.08 µM)	≤ 0.05 µg/mL	0.78 µg/mL (≈ 2.15 µM)	0.78 µg/mL (≈ 2.15 µM)	MIC ([7]; T111, 20 h, 10^6 cells per ml): 3.13 µg/mL (≈ 8.64 µM)
Cc1cc(O)ccc1-n1cc(C(=O)O)c(=O)cc1-c1ccccc1	0.78 µg/mL (≈ 2.43 µM)	0.2 µg/mL (≈ 0.622 µM)	0.1 µg/mL (≈ 0.311 µM)	0.39 µg/mL (≈ 1.21 µM)	0.78 µg/mL (≈ 2.43 µM)	0.1 µg/mL (≈ 0.311 µM)	0.78 µg/mL (≈ 2.43 µM)	0.39 µg/mL (≈ 1.21 µM)	≤ 0.05 µg/mL	6.25 µg/mL (≈ 19.5 µM)	3.13 µg/mL (≈ 9.74 µM)	0.2 µg/mL (≈ 0.622 µM)	0.39 µg/mL (≈ 1.21 µM)	1.56 µg/mL (≈ 4.85 µM)	12.5 µg/mL (≈ 38.9 µM)	0.2 µg/mL (≈ 0.622 µM)	≤ 0.05 µg/mL	0.2 µg/mL (≈ 0.622 µM)		MIC ([19]; GN918, 20 h): 1.56 µg/mL (≈ 4.85 µM)
